pKi: −log10 of the molar value. Where two headings read alike, the source gives them in different places.
Assays:
hippocampal neurons = assay type: cell-based, Sprague-Dawley rat; conditions: 1 μM compound
Procedure: Hippocampal neurons were obtained from embryonic day 17 Sprague-Dawley rats. The brains were removed and the hippocampus dissected, placed in ice-cold Leibovitz L-15 medium, carefully stripped of any remaining meninges, and minced into small pieces using scissors. The tissue was rinsed with calcium-magnesium-free Hanks' Balanced Salt Solution and incubated with 0.25% trypsin (Worthington), 40 μg/ml DNAase (Sigma) for 30 minutes at 36° C. Following incubation, the cells were rinsed with 10% serum-containing medium and dissociated by gentle trituration using a reduced bore diameter Pasteur pipet. The cells were plated on a polylysine-coated (0.5 rg/ml, Sigma) 96-well microtiter plates at 30,000 cells/well. Cells were maintained in fluorodeoxyuridine (5 μM) containing chemically defined medium [Bottenstein, J., Sato, G., "Growth of a Rat Neuroblastoma Cell Line in Serum-free Supplemented Medium", Proc. Nat'l. […]
The neuronal survival assay utilized the compound MTT [3-(4,5-dimethylthiazol-2-yl)-2,5-diphenyl tetrazolium bromide], a pale yellow substrate that is cleaved by the mitochondrial enzyme succinate-dehydrogenase to yield a dark blue formazan product. […] The precipitate was then solubilized using 0.08N HCl/isopropanol mixture and the absorbance measured with an ELISA plate reader (Dynatech MR600) using a test wavelength of 570 nm and a reference wavelength of 630 nm. […]

KA (kainate) receptor = assay: [3H]kainate receptor binding assay, synaptic plasma membranes; conditions: [3H]kainate 0.5 nM, 0-4° C., 60 min
Procedure: (§1) Synaptic plasma membranes (SPM) were prepared as previously described [Monahan, J. B. and Michel, J., "Identification and Characterization of an N-methyl-D-aspartate-specific L[^3 H]glutamate Recognition Site in Synaptic Plasma Membranes, J. Neurochem., 48, 1699-1708 (1987)]. The SPM were stored at a concentration of 10-15 mg/ml in 0.32M sucrose, 0.5 mM EDTA, 1 mM MgSO4, 5 mM Tris/SO4, pH 7.4, under liquid nitrogen. The identity and purity of the subcellular fractions were confirmed by both electron microscopy and marker enzymes. Protein concentrations were determined by using a modification of the method of Lowry [Ohnishi, S. T. and Barr, J. K., "A Simplified Method of Quantitating Proteins Using the Biuret and Phenol Reagents", Anal. Biochem., 86, 193-197 (1978)].
The SPM were treated identically for the [^3 H]AMPA (QUIS), [^3 H]kainate and sodium-dependent L-[^3 H]-glumatate binding assays. The SPM were thawed at room temperature, diluted twenty-fold with 50 mM Tris/acetate, pH 7.4, incubated at 37° C. for 30 minutes, and centrifuged at 100,000 g for 15 minutes. The dilution, incubation, and centrifugation was repeated a total of three times.
(§2) The basic procedure for the receptor subclass binding assays was similar. This general method involved adding the radioligand (12.5 nM L-[^3 H]glutamate; 0.5 nM [^3 H]kainate or 10 nM [^3 H]AMPA) to the appropriate concentration of the test compound and initiating the assay by the addition of ice cold synaptic plasma membranes (0.2-0.45 mg). The binding assays were performed in 1.5 mL centrifuge tubes with the total volume adjusted to 1.0 mL. .Additions of test compounds were made in 50 mM Tris/acetate, pH 7.4 and incubations were carried out at 0°-4° C. The incubation time for the NMDA and the AMPA binding assays was 10 minutes, for the kainate binding assay 60 minutes and for the sodium-dependent glutamate binding assay 15 minutes. The AMPA binding assay contained 100 mM KSCN and the sodium-dependent glutamate binding assay contained 150 mM sodium acetate in addition to the previously described reagents.
(§3) To terminate the incubation, the samples were centrifuged for 15 minutes at 12,000 g and 4° C. in a Beckman Microfuge 12. The supernatant was aspirated and the pelleted membranes dissolved in Beckman BTS-450 tissue solubilizer for a minimum of 6 hours at room temperature. Beckman MP scintillation cocktail containing 7 mL/1 acetic acid was then added and the samples counted on a Beckman LS 5800 or 3801 liquid scintillation counter with automatic corrections for quenching and counting efficiency.
(§4) Nonspecific binding was defined as the residual binding in the presence of either excess L-glutamate (0.1-0.4 mM), kainate (0.01 mM), or NMDA (0.5 mM), and was 15-25% of the total binding in the NMDA binding assay, 19-27% in the AMPA binding assay, 20-30% in the kainate binding assay and 10-15% in the sodium-dependent binding assay. Radioligand binding to the synaptic plasma membranes was analyzed using Scatchard and Hill transformations and the Ki values of the compounds determined using logit-log transformations. Calculations and regression analysis were performed using templates developed for Lotus 1, 2, 3 as previously described [Pullan, L. M. "Automated Radioligand Receptor Binding Analysis with Templates for Lotus", Computer Appln. Biosci., 3 131 (1987)]. Binding results are reported in Table II for example compounds of the invention. […]

NMDA receptor = assay: NMDA-specific L-[3H]glutamate receptor binding assay, synaptic plasma membranes; conditions: L-[3H]glutamate 12.5 nM, Triton X-100 treated SPM, 0-4° C., 10 min
Procedure: as §1
Prior to use in the NMDA-specific L-[^3 H]glutamate binding assay the SPM were thawed, diluted twenty fold with 50 mM Tris/acetate, pH 7.4 containing 0.04% (v/v) Triton X-100, incubated for 30 minutes at 37° C. and centrifuged as described above. The Triton X-100 treated membranes were washed with 50 mM Tris/acetate, pH 7.4 and centrifuged at 100,000 g for 15 minutes a total of four times.
as §2, §3, §4

CD-1 mouse = assay: In Vivo 3-MPA-Induced Convulsions (tonic hindlimb extension); conditions: Mus musculus
Procedure: In the CD-1 mouse, i.p. injection of 3-MPA produces clonic seizures, tonic hindlimb extension and death. Seizures begin within 2-3 minutes after injection. The dose-response for induction of tonus by 3-MPA is unusual. The incidence of tonus increases rapidly from 35 to 50 mg/kg and remains constant at a less than maximal level over a broad dose range. 3-MPA doses from 50 to 150 mg/kg produce tonus in approximately 75% of the treated mice. The incidence of death over this dose range is variable and less than maximal.
In order to test for antagonism of 3-MPA-induced tonus, the lowest dose of 3-MPA that produced tonus consistently in 75% of the animals (50 mg/kg i.p.) was chosen. Test compounds were administered subcutaneously 30-40 minutes prior to i.p. administration of 3-MPA. Immediately after 3-MPA administration, each mouse was placed in a small cage made of steel rods. The mice were then observed for the presence or absence of tonic hindlimb extension. Reduction (from 75%) in the incidence of tonic hindlimb extension was considered protection from 3-MPA-induced convulsions. The dose of the test compound varied using groups of ten mice per dose until dose response curves are constructed, and ED50 's are calculated.

## NC(C(=O)O)c1ccc(CP(=O)(O)O)cc1 (centres unmarked) [Example VI, 4-(Phosphonomethyl)phenylglycine]
Hippocampal neurons
  protection of neurons from sodium azide toxicity: significant protection
KA (kainate) receptor
  Receptor binding, KA (Ki): > 300 µM
NMDA receptor
  pKi: 5.41
CD-1 mouse; po, i.g., 3-MPA 50 mg/kg i.p., read-out: 3-MPA Convulsions i.g. (ED50)
  ED50: 300 mg/kg
CD-1 mouse; sc, s.c. 30-40 minutes prior to 3-MPA 50 mg/kg i.p., read-out: 3-MPA Convulsions s.c. (ED50)
  ED50: 6 mg/kg

— US4918064A, “Phenyl glycines for use in reducing neurotoxic injury” (G. D. Searle & Co., priority 1987, dated 1990)
